According to patent US9427426B2 (priority 2008, dated 2016):

Experiments:
[1] = tested on: rats intoxicated with lead (lead acetate); experiment: Example 1: erdosteine per os vs NAC per os in rats intoxicated with lead; assay type: in vivo, Wistar rats; settings: erdosteine 875 mg/kg or NAC 500 mg/kg per os once a day for 7 days
Protocol: (§1) 3. […] NAC has been mixed with bidistilled water, the resulting solution being administered in volume of 10 ml/kg.
(§2) 4. […] Erdosteine has been mixed with bidistilled water and sodium hydrogen carbonate equimolar, the resulting solution being administered in volume of 10 ml/kg.
(§3) Mortality has been recorded. […] Few animals have been collected urine eliminated spontaneously for Pb—Hg analysis. Animals have been sacrificed under general anesthesia with ether. 6 animals of each group (3 males and 3 females) have been randomly selected for macroscopic and microscopic anatomic-pathological examination.

[2] = Example 2: erdosteine toxicity i.v. (lot 11); assay type: in vivo, Wistar rats; settings: both sexes, Wistar, in vivo, iv, 3500 mg/kg; rat, i.v.; read-out: LD50 of i.v. form of erdosteine
Excerpt: (§4) These lots have been evaluated only for mortality.

[3] = tested on: rats; experiment: Example 2: erdosteine toxicity i.v. (lot 11); assay type: in vivo, Wistar rats; settings: erdosteine 3500 mg/kg i.v. slowly; 10 animals, not metal intoxicated
Excerpt: as §4

[4] = water (NAC: at 20° C.); cited from earlier work
[5] = tested on: rat; settings: cited from earlier work
[6] = tested on: rats; experiment: Example 3: evaluation of erdosteine formulation toxicity i.v. (lots 10-13); assay type: in vivo, Wistar rats; settings: 10 animals
Protocol: Have been introduced 4 lot of 10 animals (5 males and 5 females) as follows: • Lot 10—intoxicated with 3500 mg/kg erdosteine i.v., 4.37 g erdosteine+1.48 g sodium hydrogen carbonate dissolved in 25 ml, administrated 2 ml/100 g of animal weight • Lot 11—intoxicated with 4000 mg/kg erdosteine i.v. as in lot 10, administrated 2.28 ml/100 g of animal weight • Lot 12—intoxicated with 4500 mg/kg erdosteine i.v. 4.5 g dissolved in 20 ml, administrated 2 ml/100 g of animal weight. Dissolution volume was choose in order to keep a similar injection volume. • Lot 13—intoxicated with 5500 mg/kg erdosteine i.v. as in lot 12, administrated 2.44 ml/100 g of animal weight Statistical Analysis
It has been evaluated toxicity of formula 350 mg erdosteine+118 mg sodium hydrogen carbonate (formula that has shown the best stability data).

[7] = tested on: rats intoxicated with mercury (mercury chloride); experiment: Example 2: erdosteine i.v. vs NAC i.v. in rats intoxicated with mercury; assay type: in vivo, Wistar rats; settings: for Mortalitaty total / Mortality in percent: Hg intoxicated (mercury chloride 42 mg/kg per os), 35 animals/lot; for Anatomical pathology: lesions / Hg in urine mean values / Creatinine mean values / Haematocrit mean values / Haemoglobin mean values / Leucocytes mean values / Urea mean values / Uric acid mean value / erythrocytes mean values: Hg intoxicated; for Creatinine mean values / Haematocrit mean values / Haemoglobin mean values / Leucocytes mean values / Urea mean values / Uric acid mean value / erythrocytes mean values: survivors after 7 days
Protocol: The animals have been randomly divided in 11 lots.
3. […] NAC has been dissolved in bidistilled water.
4. […] Erdosteine has been solubilized in bidistilled water and sodium hydrogen carbonate equimolar, the resulting solution being administered in volume of 10 ml/kg. Preliminarily we tested the different molar ratios erdosteine/sodium hydrogen carbonate in a range between 0.5:1 and 1.5:1 and the volume to be solubilized. […] Animals Monitoring:
as §3

[8] = tested on: rats intoxicated with mercury (mercury chloride); experiment: Example 1: erdosteine per os vs NAC per os in rats intoxicated with mercury; assay type: in vivo, Wistar rats; settings: erdosteine 875 mg/kg or NAC 500 mg/kg per os once a day for 7 days
Protocol: as §1, §2, §3

[9] = Pb intoxicated (lead acetate 4665 mg/kg per os), 30 animals/lot
[10] = survivors after 7 days, Pb intoxicated
[11] = 3500 mg/kg erdosteine i.v. (lot 10)
[12] = 4000 mg/kg erdosteine i.v. (lot 11)
[13] = 4500 mg/kg erdosteine i.v. (lot 12), solution not perfectly clear
[14] = 5500 mg/kg erdosteine i.v. (lot 13), solution not perfectly clear
[15] = ERDO1 = erdosteine 350 mg/kg i.v. or NAC 114 mg/kg i.v. once a day for 7 days
[16] = ERDO2 = erdosteine 175 mg/kg i.v. once a day for 7 days
[17] = ERDO1 = erdosteine 350 mg/kg i.v. or NAC 114 mg/kg i.v. once a day
[18] = ERDO2 = erdosteine 175 mg/kg i.v. once a day
[19] = Hg intoxicated (mercury chloride 42 mg/kg per os), 30 animals/lot
[20] = survivors after 7 days, Hg intoxicated

## O=C(O)CSCC(=O)NC1CCSC1=O (centres unmarked) [erdosteine, Erdosteine]
[1]; [9]
  Mortality in percent: 16.6%
  Mortality total: 5
[1]; Pb intoxicated
  Anatomical pathology: lesions (macroscopic and microscopic examination): less important damages
[1]; Pb intoxicated, GS MS Varian 4100
  Pb in urine, Pb mean values: 10.9 mg/L
[1]; [10]
  Creatinine mean values: 0.48 ^1, 2 mK/dl
  Haematocrit mean values: 39.41^3
  Haemoglobin mean values: 13.75^3 g/dl
  Leucocytes mean values: 7.31^3
  Urea mean values: 50.93 ^1, 2 mg/dl
  Uric acid mean value: 1.90 ^3 mg/dl
  erythrocytes mean values: 6.82^3 *10^6/mm^3
[2]
  LD50: > 3500 mg/kg
[3]
  Mortalitaty total: 1/10
  Mortality in percent: 10%
[4]
  solubility in water, in words: moderately soluble
[5]; per os, rat where given
  LD50 per os: 8750 mg/kg
[5]; rat, i.v.
  LD50 i.v.: > 3500 mg/kg
[6]; [11]
  Mortality %: 10%
  Total mortality: 1/10
[6]; [12]
  Mortality %: 40%
  Total mortality: 4/10
[6]; [13]
  Mortality %: 70%
  Total mortality: 7/10
[6]; [14]
  Mortality %: 100%
  Total mortality: 10/10
[7]; [15]
  Mortalitaty total: 8 ^1, 2
  Mortality in percent: 22.6%
  Anatomical pathology: lesions: least severe damages
  Hg in urine mean values: 18.7 mg/L
[7]; ERDO1 = erdosteine 350 mg/kg i.v. or NAC 114 mg/kg i.v. once a day for 7 days, listed as ERDOI
  Mortality in percent: 22.6%
[7]; [16]
  Mortalitaty total: 12 ^1, 2
  Mortality in percent: 34.3%
  Anatomical pathology: lesions: less important lesions
  Hg in urine mean values: 14.4 mg/L
[7]; [17]
  Creatinine mean values: 0.60 ^2 mK/dl
  Haematocrit mean values: 38.43 ^3
  Haemoglobin mean values: 15.05 ^3 g/dl
  Leucocytes mean values: 17.36 ^3
  Urea mean values: 50.36 ^1, 2 mg/dl
  Uric acid mean value: 2.25 ^4 mg/dl
  erythrocytes mean values: 6.98 ^3 *10^6/mm^3
[7]; [18]
  Creatinine mean values: 0.51 ^1, 2 mK/dl
  Haematocrit mean values: 36.83 ^3
  Haemoglobin mean values: 13.86 ^J g/dl
  Leucocytes mean values: 8.61 ^3
  Urea mean values: 53.15 ^1, 2 mg/dl
  Uric acid mean value: 2.23 ^4 mg/dl
  erythrocytes mean values: 6.55 ^3 *10^6/mm^3
[8]; [19]
  Mortality in percent: 16.6%
  Mortality total: 5^1
[8]; Hg intoxicated
  Anatomical pathology: lesions (macroscopic and microscopic examination): less important lesions
[8]; Hg intoxicated, GS MS Varian 4100
  Hg in urine mean values: 14.7 mg/L
[8]; [20]
  Creatinine mean values: 0.47 ^1, 2 mK/dl
  Haematocrit mean values: 38.58^3
  Haemoglobin mean values: 13.75^3 g/dl
  Leucocytes mean values: 7.81^3
  Urea mean values: 49.18 ^1, 2 mg/dl
  Uric acid mean value: 2.40 ^1 mg/dl
  erythrocytes mean values: 6.81^3 *10^6/mm^3
